Measured values: ChEMBL document CHEMBL1143456, “Identification of a potent and selective 5-HT1B receptor antagonist” (Bioorg Med Chem Lett, 2005)

Key:
[1] = Intrinsic clearance from human liver microsomes; assay type: ADME, Microsome
[2] = biological target: T1, 5-hydroxytryptamine receptor 1D (Homo sapiens, UniProt P28221); experiment: Binding affinity against cloned human 5-hydroxytryptamine 1D receptor
Rattus norvegicus = species: Rattus norvegicus; experiment: Intrinsic clearance from rat liver microsomes; assay type: ADME, Microsome
[3] = biological target: T2, 5-hydroxytryptamine receptor 1B (Homo sapiens, UniProt P28222); experiment: Binding affinity against cloned human 5-hydroxytryptamine 1B receptor
Homo sapiens = species: Homo sapiens; experiment: Selectivity towards human 5-hydroxytryptamine 1B receptor to that of 5-hydroxytryptamine 1A receptor
[4] = biological target: Serotonin 1 receptors; 5-HT1B & 5-HT1D (Homo sapiens) (UniProt P28222+P28221); experiment: Selectivity towards human 5-hydroxytryptamine 1B receptor to that of 5-hydroxytryptamine 1D receptor; assay type: protein assay
[5] = biological target: T3, 5-hydroxytryptamine receptor 1A (Homo sapiens, UniProt P08908); experiment: Binding affinity against cloned human 5-hydroxytryptamine 1A receptor
T3 sequence (P08908 whole entry): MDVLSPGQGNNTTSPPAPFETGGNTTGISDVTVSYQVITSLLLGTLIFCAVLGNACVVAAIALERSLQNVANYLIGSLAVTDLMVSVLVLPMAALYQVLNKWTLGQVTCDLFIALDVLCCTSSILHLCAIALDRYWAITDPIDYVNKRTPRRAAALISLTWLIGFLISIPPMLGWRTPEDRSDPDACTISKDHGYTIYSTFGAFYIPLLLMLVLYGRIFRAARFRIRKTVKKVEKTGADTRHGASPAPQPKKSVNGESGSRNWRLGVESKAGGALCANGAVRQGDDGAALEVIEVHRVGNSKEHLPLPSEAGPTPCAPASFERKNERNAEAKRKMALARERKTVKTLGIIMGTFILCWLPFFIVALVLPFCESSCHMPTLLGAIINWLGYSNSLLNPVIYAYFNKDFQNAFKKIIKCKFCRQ

[6] = biological target: T2, 5-hydroxytryptamine receptor 1B; experiment: Intrinsic activity for human 5-hydroxytryptamine 1B receptor
[7] = biological target: T1, 5-hydroxytryptamine receptor 1D; experiment: Intrinsic activity for human 5-hydroxytryptamine 1D receptor

T1 sequence (P28221 whole entry): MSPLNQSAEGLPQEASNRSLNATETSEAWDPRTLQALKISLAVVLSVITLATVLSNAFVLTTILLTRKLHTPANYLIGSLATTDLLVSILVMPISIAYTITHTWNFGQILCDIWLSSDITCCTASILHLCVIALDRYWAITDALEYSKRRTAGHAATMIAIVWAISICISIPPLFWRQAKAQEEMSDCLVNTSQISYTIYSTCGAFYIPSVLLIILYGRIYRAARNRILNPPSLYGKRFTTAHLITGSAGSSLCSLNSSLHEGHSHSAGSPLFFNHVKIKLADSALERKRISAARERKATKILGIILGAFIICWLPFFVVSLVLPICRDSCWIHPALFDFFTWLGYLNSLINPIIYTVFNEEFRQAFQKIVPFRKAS
T2 sequence (P28222 whole entry): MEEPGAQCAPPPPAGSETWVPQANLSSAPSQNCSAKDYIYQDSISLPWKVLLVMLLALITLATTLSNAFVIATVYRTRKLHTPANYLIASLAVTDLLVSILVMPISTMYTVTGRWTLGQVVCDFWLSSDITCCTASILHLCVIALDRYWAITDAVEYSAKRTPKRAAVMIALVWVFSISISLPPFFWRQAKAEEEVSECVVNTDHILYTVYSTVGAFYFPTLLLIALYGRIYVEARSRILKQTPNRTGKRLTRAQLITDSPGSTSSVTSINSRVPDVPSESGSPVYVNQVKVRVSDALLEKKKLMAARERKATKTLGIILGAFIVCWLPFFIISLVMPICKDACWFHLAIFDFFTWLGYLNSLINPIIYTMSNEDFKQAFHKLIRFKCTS

Compound: CCN1[C@H](C)CN(c2cc3c(cc2OC)CCN3C(=O)c2ccc(-c3cccc(C)n3)c3ccccc23)C[C@@H]1C
- Intrinsic clearance [1]: 47 mL/min/g
- Ki [2]: 126 nM
- Intrinsic clearance (Rattus norvegicus): 45 mL/min/g
- Ki [3]: 3.98 nM
- Selectivity (Homo sapiens): 110
- Selectivity [4]: 28
- Ki [5]: 501 nM

Compound: COc1cc2c(cc1N1C[C@@H](C)N(C)[C@@H](C)C1)N(C(=O)c1ccc(-c3ccc(-c4noc(C)n4)cc3C)cc1)CC2
- Ki [2]: 15.8 nM
- Ki [3]: 5.01 nM

Compound: COc1cc2c(cc1N1C[C@@H](C)N[C@@H](C)C1)N(C(=O)c1ccc(-c3cccc(C)n3)c3ccccc13)CC2
- Intrinsic clearance [1]: 14 mL/min/g
- Ki [2]: 126 nM
- Intrinsic clearance (Rattus norvegicus): 12 mL/min/g
- Ki [3]: 50.1 nM
- Selectivity (Homo sapiens): 21
- Selectivity [4]: 2.8
- Ki [5]: 1000 nM

Compound: COc1cc2c(cc1N1CCN(C)CC1)N(C(=O)c1ccc(-c3cccc(C)n3)c3ccccc13)CC2
- Intrinsic activity [6]: 0.9
- Intrinsic activity [7]: 0.9
- Ki [2]: 25.1 nM
- Ki [3]: 2 nM
- Selectivity (Homo sapiens): 6
- Selectivity [4]: 12
- Ki [5]: 12.6 nM

Compound: COc1cc2c(cc1N1CCN(C)CC1)N(C(=O)Nc1cccc(Cl)c1Cl)CC2
- Intrinsic activity [6]: 0.6
- Intrinsic activity [7]: 0.7
- Ki [2]: 12.6 nM
- Ki [3]: 3.98 nM
- Selectivity (Homo sapiens): 13
- Selectivity [4]: 3
- Ki [5]: 50.1 nM

Compound: COc1cc2c(cc1N1C[C@@H](C)N(C)[C@@H](C)C1)N(C(=O)Cc1cccc([N+](=O)[O-])c1)CC2
- Intrinsic activity [6]: 0.1
- Intrinsic activity [7]: 0.2
- Ki [2]: 251 nM
- Ki [3]: 15.8 nM
- Selectivity (Homo sapiens): 125
- Selectivity [4]: 15
- Ki [5]: 2000 nM

Compound: COc1cc2c(cc1N1C[C@@H](C)N[C@@H](C)C1)N(C(=O)c1ccc(-c3ccc(-c4ncccn4)cc3C)cc1)CC2
- Ki [2]: 251 nM
- Ki [3]: 5.01 nM

Compound: COc1cc2c(cc1N1C[C@@H](C)N(C)[C@@H](C)C1)N(C(=O)c1cccc(Cl)c1Cl)CC2
- Ki [2]: 251 nM
- Ki [3]: 12.6 nM

Compound: COc1cc2c(cc1N1C[C@@H](C)N(C)[C@@H](C)C1)N(C(=O)Oc1cccc(C(F)(F)F)c1F)CC2
- Intrinsic activity [6]: 0.1
- Ki [2]: 31.6 nM
- Ki [3]: 2.51 nM

Compound: COc1cc2c(cc1N1C[C@@H](C)N(C)[C@@H](C)C1)N(C(=O)Oc1cccc(C(F)(F)F)c1Cl)CC2
- Intrinsic activity [6]: 0.15
- Ki [2]: 25.1 nM
- Ki [3]: 2.51 nM

Compound: COc1cc2c(cc1N1C[C@@H](C)N(C)[C@@H](C)C1)N(C(=O)c1cccc(Cl)c1)CC2
- Ki [2]: 251 nM
- Ki [3]: 20 nM

Compound: COc1cc2c(cc1N1C[C@@H](C)N(C)[C@@H](C)C1)N(C(=O)c1ccc(-c3cccc(C)n3)c3ccccc13)CC2
- Intrinsic activity [6]: 0.3
- Intrinsic clearance [1]: 34 mL/min/g
- Ki [2]: 100 nM
- Intrinsic clearance (Rattus norvegicus): 46 mL/min/g
- Ki [3]: 3.16 nM
- Selectivity (Homo sapiens): 160
- Selectivity [4]: 30
- Ki [5]: 501 nM

Compound: COc1cc2c(cc1N1C[C@@H](C)N(C)[C@@H](C)C1)N(C(=O)Cc1cccc(C(F)(F)F)c1F)CC2
- Intrinsic activity [6]: 0.1
- Ki [2]: 126 nM
- Ki [3]: 1.58 nM

Compound: CN1CCN(c2cc3c(cc2Cl)CCN3C(=O)Nc2ccc(-c3ccncc3)c3ccccc23)CC1
- Ki [2]: 1 nM
- Ki [3]: 3.98 nM
- Selectivity (Homo sapiens): 1
- Selectivity [4]: 0.25
- Ki [5]: 3.98 nM

Compound: COc1cc2c(cc1N1C[C@@H](C)N[C@@H](C)C1)N(C(=O)c1ccc(-c3ccc(-c4noc(C)n4)cc3C)cc1)CC2
- Intrinsic activity [6]: 0
- Ki [2]: 251 nM
- Ki [3]: 3.16 nM

Compound: COc1cc2c(cc1N1C[C@@H](C)N(C)[C@@H](C)C1)N(C(=O)Cc1cccc(Cl)c1F)CC2
- Intrinsic activity [6]: 0.1
- Ki [2]: 100 nM
- Ki [3]: 2 nM

Compound: COc1cc2c(cc1N1C[C@@H](C)N[C@@H](C)C1)N(C(=O)c1ccc(-c3cc(C)ncc3C)cc1)CC2
- Intrinsic activity [6]: 0
- Ki [2]: 501 nM
- Ki [3]: 7.94 nM

Compound: COc1cc2c(cc1N1C[C@@H](C)N(C)[C@@H](C)C1)N(C(=O)Cc1cccc(F)c1C(F)(F)F)CC2
- Intrinsic activity [6]: 0.1
- Ki [2]: 200 nM
- Ki [3]: 3.16 nM

Compound: COc1cc2c(cc1N1C[C@@H](C)N(C)[C@@H](C)C1)N(C(=O)c1ccc(-c3ccccc3C)cc1)CC2
- Intrinsic activity [6]: 0
- Ki [2]: 15.8 nM
- Ki [3]: 0.631 nM

Compound: COc1cc2c(cc1N1C[C@@H](C)N(C)[C@@H](C)C1)N(C(=O)Nc1cccc(C(F)(F)F)c1Cl)CC2
- Intrinsic activity [6]: 0
- Ki [2]: 50.1 nM
- Ki [3]: 2.51 nM

Compound: COc1cc2c(cc1N1C[C@@H](C)N[C@@H](C)C1)N(C(=O)c1ccc(-c3ccc(N4CCCC4=O)nc3C)cc1)CC2
- Intrinsic activity [6]: 0
- Ki [2]: 398 nM
- Ki [3]: 5.01 nM

Compound: COc1cc2c(cc1N1C[C@@H](C)N(C)[C@@H](C)C1)N(C(=O)Nc1cccc(Cl)c1Cl)CC2
- Intrinsic activity [6]: 0.1
- Intrinsic activity [7]: 0.1
- Intrinsic clearance [1]: 3 mL/min/g
- Ki [2]: 79.4 nM
- Intrinsic clearance (Rattus norvegicus): 3 mL/min/g
- Ki [3]: 7.94 nM
- Selectivity (Homo sapiens): 200
- Selectivity [4]: 10

Compound: COc1cc2c(cc1N1C[C@@H](C)N(C)[C@@H](C)C1)N(C(=O)Nc1cccc(Cl)c1F)CC2
- Intrinsic activity [6]: 0.1
- Ki [2]: 200 nM
- Ki [3]: 7.94 nM

Compound: CCCN1[C@H](C)CN(c2cc3c(cc2OC)CCN3C(=O)c2ccc(-c3cccc(C)n3)c3ccccc23)C[C@@H]1C
- Ki [2]: 158 nM
- Ki [3]: 31.6 nM
- Selectivity (Homo sapiens): 2
- Selectivity [4]: 4.7
- Ki [5]: 79.4 nM

Compound: COc1cc2c(cc1N1C[C@@H](C)N[C@@H](C)C1)N(C(=O)c1ccc(-c3ccc(C(C)=O)cc3C)cc1)CC2
- Ki [2]: 398 nM
- Ki [3]: 3.16 nM

Compound: COc1cc2c(cc1N1C[C@@H](C)N(C)[C@@H](C)C1)N(C(=O)Nc1cccc(C(F)(F)F)c1F)CC2
- Intrinsic activity [6]: 0
- Ki [2]: 158 nM
- Ki [3]: 3.98 nM

Compound: COc1cc2c(cc1N1CCN(C)CC1)N(C(=O)Cc1cccc([N+](=O)[O-])c1)CC2
- Ki [2]: 31.6 nM
- Ki [3]: 7.94 nM
- Selectivity (Homo sapiens): 20
- Selectivity [4]: 4
- Ki [5]: 158 nM
